Several values for one entry are separate records, joined by “and”; a condition that tells them apart may be missing. Equal entries are not always repeated.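 These data come from cells grown in 96-well plates and exposed to compound for 48 hours at five concentrations. Here, GI50 denotes the concentration required for 50% inhibition of growth. The concentration for full growth arrest is given as TGI.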 A value given as a limit tells only on which side of the number the result lay.

The text below walks through data of PubChem BioAssay (NCI).

What all share (test): NCI tumour cell line growth inhibition, 48 h
For test [1], the system named is P388 leukemia.
For test [2], the system named is HOP-18 NSCLC.
Test [3] concerns DLD-1 colon.
The subject of test [4] is SN12K1 renal.
Test [5] concerns MDA-N.
Test [6] has as its system P388/ADR leukemia.
For test [7], the system named is SNB-78 CNS.
The test system of test [8] is LXFL 529 NSCLC.
Test [9] deals with DMS 114 small cell lung.
In test [10] the test system is RXF-631 renal.
Test [11] relates to XF 498 CNS.

Turning to `COc1cccc2c1C(=O)c1c(O)c3c(c(O)c1C2=O)C[C@@](O)(C(C)=O)C[C@@H]3OC1CC(O)C(O)C(C)O1` (some centres not stated), the GI50 is 0.013 µM in [1], 0.333 µM in [4] and 1.49 µM in test [8]. For the same compound, the TGI is 0.372 µM in test [1]; 7.13 µM and 7.74 µM in test [2]; 15.9 µM in test [3]; 4.96 µM in test [4]; 21.4 µM in [5]; 1.64 µM in test [6]. Further, the TGI in test [7] came out at 59.1 µM; in test [8], 15.3 µM.

Compound `CCCCCCCC(=O)NS(=O)(=O)c1ccccc1` yielded a TGI in test [5] above 100 µM.

`CC(C)(C)c1cc(-c2c3nc(c(-c4cc(C(C)(C)C)cc(C(C)(C)C)c4)c4ccc([nH]4)c(-c4cc(C(C)(C)C)cc(C(C)(C)C)c4)c4nc(c(-c5cc(C(C)(C)C)cc(C(C)(C)C)c5)c5ccc2[nH]5)C=C4)C=C3)cc(C(C)(C)C)c1`: the TGI in test [2], in [3], in test [9], in [7], in [10] and in test [11] was above 100 µM each time. Besides, the TGI in test [8] is above 100 µM.

`NC1=NCC(c2ccccn2)C1c1ccc(F)cc1` (configuration not stated): the TGI in [2], in test [3], in [9], in [7], in [10] and in test [11] was above 100 µM in each case. Also, the TGI in test [8] is above 100 µM.

As for `O=C1C(CO)=C[C@@H](O)[C@H]2O[C@@H]12`, the TGI in test [5] was above 100 µM.

`C/C=C/C=C/CCCCCCCCCCCCC[C@]1(OC)C=CC(CC(=O)OC)OO1` (some centres not stated): the GI50 in [3] was 20.2 µM; in [10], 24 µM; in [11], 24.2 µM; in [8] it was 14.7 µM. For the same compound, the TGI in test [3] turned out to be 41.9 µM; in test [10] it was 56 µM; in test [11], 44.6 µM; in test [8], 28.2 µM.

`COc1ccc(/C(=C\c2cc(OC)c(OC)c(OC)c2)C(=O)O)cc1`: the TGI in [2] was above 100 µM; in test [3] it was above 100 µM; in test [9], 67.2 µM; in [7], above 100 µM; in test [11] it was 62.3 µM; in test [8] it was above 100 µM.

With `C=CCN(N=O)C(=O)N(CCCCC(NC(C)=O)C(=O)NCc1ccccc1)Cc1ccccc1` (configuration not stated), the TGI in test [2] was 81.6 µM; in test [9], 86.4 µM; in test [10], above 100 µM; in [11], above 100 µM; in test [8] it was above 100 µM.

In test [5], `COC(=O)[C@@H]1[C@H](O)[C@H](C)[C@H](O)[C@H](C)/C=C\C=C(C)C(=O)Nc2c(C)c(OC(C)=O)c3c(c2O)C(=O)C(C)=C2OCOC(=C23)C(C)=C[C@@](C)(O)[C@H](O)[C@@H](C)[C@H]1OC(C)=O` registered a TGI of 41.9 µM.

As for `Cc1ccccc1NC(=O)C(=O)CC(=O)C1CCOC1=O` (configuration not stated), the TGI in [2], in [3], in test [9], in test [7], in test [11] and in [8] was above 100 µM throughout.

Consider `CNC(=O)/C(=C/c1ccc(OC)cc1)c1cc(OC)c(OC)c(OC)c1`, for which the TGI is above 100 µM in [2]; above 100 µM in test [3]; 0.71 µM in test [5]; above 21.5 µM in [9]; above 100 µM in test [7]; above 100 µM in test [10]. The TGI was 65.8 µM in [11] and above 100 µM in test [8].

The compound `C/C(=C1/N=C(c2ccccc2)OC1=O)c1ccccc1` displayed a TGI in test [5] above 100 µM.

As to `COc1cc(/C=C2\NC(=S)C3Cc4c(OC)c(C)c(OC)c(OC)c4C2N3C)c(OC)c(C)c1OC` (configuration not stated), the TGI in test [2] was above 100 µM; in [3] it was above 100 µM; in [9] it was 92.1 µM; in test [8], above 100 µM.

For `COC1C(O)CC(OC2CC(OC3CC(O[C@@H]4C(=O)c5c(cc6cc(OC7CC(OC8CC(O)C(O)C(C)O8)C(O)C(C)O7)c(C)c(O)c6c5O)C[C@H]4[C@H](OC)C(=O)[C@@H](O)[C@@H](C)O)OC(C)C3O)OC(C)C2O)OC1C` (some centres not stated), the TGI in [2] is 36 µM; in test [3], above 100 µM; in test [9] it was 4.5 µM; in test [7], above 100 µM; in test [11] it was 0.191 µM; in [8], above 100 µM.

In turn, `CC(C)C[C@H]1C(=O)N2CCC[C@H]2[C@]2(O)O[C@](NC(=O)[C@@H]3C=C4c5cccc6[nH]c(Br)c(c56)C[C@H]4N(C)C3)(C(C)C)C(=O)N12` had a TGI in [5] above 100 µM.

On to `CN(C)CCC(/C=C/c1ccccc1)=N\Nc1ccc(Cl)cc1`, for which the TGI in [2] stood at 17 µM; in test [3], 11.1 µM; in test [9] it was 5.9 µM; in test [7] it was 21.4 µM; in test [8] it was 9.26 µM.

For the compound `Cc1cc(Cl)ccc1N1C(=O)C(=O)C(c2nc3ccccc3o2)C(=O)C1=O`, the TGI in test [2], in [3], in test [9], in test [7], in [11] and in [8] was above 100 µM each time.

`Cc1nnc2n1N=C(c1ccc(-c3ccc([N+](=O)[O-])cc3)o1)CS2`: the TGI in test [3], in test [7] and in [8] was above 100 µM in each case.
